Legend:
C. tropicalis [1] = experiment: Broth Tube Dilution Test, minimal fungicidal concentration; type: cell-based; settings: Candida tropicalis, 28° C., 24 hours later
Procedure: (§1) The test compounds are serially diluted in pure dimethylformamide, giving a concentration of 4000, 800, 160 and 32 micrograms/milliliters(μg./ml.).A further dilution (typically a 2-fold or a 5-fold dilution) is made from each of the above serial dilutions into tubes containing 9.4 ml. BactoSabouraud Dextrose Broth, resulting in a set of broth tubes with specific final drug concentrations for which activity is to be determined. Each of the broth tubes is then inoculated with 0.5 ml. of a stock suspension of the same test organism. After inoculation, all of the tubes are incubated at 28° C. The tubes are read 48 hours to 7 days post inoculation, depending on the organism being tested. The lowest concentration of test compound at which growth of the organism is prevented in the broth tubes is taken as the minimal inhibitory concentration (MIC). The Broth+Serum Dilution Test is performed in the same manner as the Broth Tube Dilution Test except that the liquid medium consists of 50% BactoSabouraud Dextrose Broth and 50% normal calf serum from citrated blood. Minimal Fungicidal Concentrations (MFC) For a determination of fungicidal activity, the broth tubes described above are incubated at 28° C. for 48 hours and then serially diluted 1:100 into Bacto-Sabouraud Dextrose Broth and incubated again for 48 hours. The tubes are then read and the lowest concentration of test compound for which there is no growth of the organism in the broth tube is taken as the minimal fungicidal concentration (MFC).

C. albicans [2] = experiment: as above; type: cell-based; settings: Candida albicans, 28° C., 24 hours later
Procedure: as §1

Geotrichum candidum [3] = experiment: as above; type: cell-based; settings: 28° C., 24 hours later
Procedure: as §1

C. stellatoidea [4] = experiment: as above; type: cell-based; settings: Candida albicans, 28° C., 24 hours later
Procedure: as §1

C. krusei [5] = experiment: Broth Tube Dilution Test, minimal inhibitory concentration; type: cell-based, Candida krusei; settings: Pichia kudriavzevii, 28° C., at 72
Procedure: as §1, with “Minimal Inhibitory Concentration (MIC) The test” for “The test”, “citrated blood.” for “citrated blood. Minimal Fungicidal Concentrations (MFC) For a determination of fungicidal activity, the broth tubes described above are incubated at 28° C. for 48 hours and then serially diluted 1:100 into Bacto-Sabouraud Dextrose Broth and incubated again for 48 hours. The tubes are then read and the lowest concentration of test compound for which there is no growth of the organism in the broth tube is taken as the minimal fungicidal concentration (MFC).”

C. tropicalis [6] = experiment: as above; type: cell-based; settings: Candida tropicalis, 28° C., at 72
Procedure: as §1, with “Minimal Inhibitory Concentration (MIC) The test” for “The test”, “citrated blood.” for “citrated blood. Minimal Fungicidal Concentrations (MFC) For a determination of fungicidal activity, the broth tubes described above are incubated at 28° C. for 48 hours and then serially diluted 1:100 into Bacto-Sabouraud Dextrose Broth and incubated again for 48 hours. The tubes are then read and the lowest concentration of test compound for which there is no growth of the organism in the broth tube is taken as the minimal fungicidal concentration (MFC).”

C. albicans [7] = experiment: as above; type: cell-based; settings: Candida albicans, 28° C., at 72
Procedure: as §1, with “Minimal Inhibitory Concentration (MIC) The test” for “The test”, “citrated blood.” for “citrated blood. Minimal Fungicidal Concentrations (MFC) For a determination of fungicidal activity, the broth tubes described above are incubated at 28° C. for 48 hours and then serially diluted 1:100 into Bacto-Sabouraud Dextrose Broth and incubated again for 48 hours. The tubes are then read and the lowest concentration of test compound for which there is no growth of the organism in the broth tube is taken as the minimal fungicidal concentration (MFC).”

Geotrichum candidum [8] = experiment: as above; type: cell-based; settings: 28° C., at 72
Procedure: as §1, with “Minimal Inhibitory Concentration (MIC) The test” for “The test”, “citrated blood.” for “citrated blood. Minimal Fungicidal Concentrations (MFC) For a determination of fungicidal activity, the broth tubes described above are incubated at 28° C. for 48 hours and then serially diluted 1:100 into Bacto-Sabouraud Dextrose Broth and incubated again for 48 hours. The tubes are then read and the lowest concentration of test compound for which there is no growth of the organism in the broth tube is taken as the minimal fungicidal concentration (MFC).”

C. stellatoidea [9] = experiment: as above; type: cell-based; settings: Candida albicans, 28° C., at 72
Procedure: as §1, with “Minimal Inhibitory Concentration (MIC) The test” for “The test”, “citrated blood.” for “citrated blood. Minimal Fungicidal Concentrations (MFC) For a determination of fungicidal activity, the broth tubes described above are incubated at 28° C. for 48 hours and then serially diluted 1:100 into Bacto-Sabouraud Dextrose Broth and incubated again for 48 hours. The tubes are then read and the lowest concentration of test compound for which there is no growth of the organism in the broth tube is taken as the minimal fungicidal concentration (MFC).”

C. parapsilosis [10] = experiment: as above; type: cell-based, Candida parapsilosis; settings: Lodderomyces parapsilosis, 28° C., at 72
Procedure: as §1, with “Minimal Inhibitory Concentration (MIC) The test” for “The test”, “citrated blood.” for “citrated blood. Minimal Fungicidal Concentrations (MFC) For a determination of fungicidal activity, the broth tubes described above are incubated at 28° C. for 48 hours and then serially diluted 1:100 into Bacto-Sabouraud Dextrose Broth and incubated again for 48 hours. The tubes are then read and the lowest concentration of test compound for which there is no growth of the organism in the broth tube is taken as the minimal fungicidal concentration (MFC).”

C. krusei [11] = experiment: Broth Tube Dilution Test, minimal fungicidal concentration; type: cell-based, Candida krusei; settings: Pichia kudriavzevii, 28° C., 24 hours later
Procedure: as §1, with “Minimal Fungicidal Concentrations (MFC) For a determination of fungicidal activity, the broth tubes described above are incubated at 28° C. for 48 hours and then serially diluted 1:100 into Bacto-Sabouraud Dextrose Broth and incubated again for 48 hours.” left out

C. guilliermondi [12] = experiment: as above; type: cell-based, Candida gulliermondi; settings: Candida, 28° C., 24 hours later
Procedure: as §1, with “Minimal Fungicidal Concentrations (MFC) For a determination of fungicidal activity, the broth tubes described above are incubated at 28° C. for 48 hours and then serially diluted 1:100 into Bacto-Sabouraud Dextrose Broth and incubated again for 48 hours.” left out

C. guilliermondi [13] = experiment: Broth Tube Dilution Test, minimal inhibitory concentration; type: cell-based, Candida gulliermondi; settings: Candida, 28° C., at 72
Procedure: as §1, with “Minimal Inhibitory Concentration (MIC) The test” for “The test”, “citrated blood.” for “citrated blood. Minimal Fungicidal Concentrations (MFC) For a determination of fungicidal activity, the broth tubes described above are incubated at 28° C. for 48 hours and then serially diluted 1:100 into Bacto-Sabouraud Dextrose Broth and incubated again for 48 hours. The tubes are then read and the lowest concentration of test compound for which there is no growth of the organism in the broth tube is taken as the minimal fungicidal concentration (MFC).”

C. parapsilosis [14] = experiment: Broth Tube Dilution Test, minimal fungicidal concentration; type: cell-based, Candida parapsilosis; settings: Lodderomyces parapsilosis, 28° C., 24 hours later
Procedure: as §1, with “Minimal Fungicidal Concentrations (MFC) For a determination of fungicidal activity, the broth tubes described above are incubated at 28° C. for 48 hours and then serially diluted 1:100 into Bacto-Sabouraud Dextrose Broth and incubated again for 48 hours.” left out

CCc1ccc2c(ccc3c[n+]4c5ccc(N6CCCC6)cc5ccc4n32)c1.[Cl-] [Example 26, 10-Ethyl-3-(1-pyrrolidinyl)imidazo[1,2-a: 3,4-a']diquinolin-15-ium chloride]
MFC (C. tropicalis [1]): > 10 µg/mL | MFC (C. albicans [2]): 2.5 µg/mL | MFC (Geotrichum candidum [3]): > 10 µg/mL | MFC (C. stellatoidea [4]): 5 µg/mL | MIC (C. krusei [5]): 2.5 µg/mL | MIC (C. tropicalis [6]): 10 µg/mL | MIC (C. albicans [7]): 2.5 µg/mL | MIC (Geotrichum candidum [8]): 5 µg/mL | MIC (C. stellatoidea [9]): 1.25 µg/mL | MIC (C. parapsilosis [10]): 5 µg/mL | MFC (C. krusei [11]): 2.5 µg/mL | MFC (C. guilliermondi [12]): > 10 µg/mL | MIC (C. guilliermondi [13]): 10 µg/mL | MFC (C. parapsilosis [14]): > 10 µg/mL

CC(C)(C)c1ccc2c(ccc3c[n+]4c5ccc(N6CCCC6)cc5ccc4n32)c1.[Cl-] [Example 7, 10-(1,1-Dimethylethyl)-3-(1-pyrrolidinyl)imidazo[1,2-a:3,4-a']diquinolin-15-ium Chloride]
MFC (C. tropicalis [1]): > 10 µg/mL | MFC (C. albicans [2]): 10 µg/mL | MFC (Geotrichum candidum [3]): > 10 µg/mL | MFC (C. stellatoidea [4]): 5 µg/mL | MIC (C. krusei [5]): 10 µg/mL | MIC (C. tropicalis [6]): > 10 µg/mL | MIC (C. albicans [7]): 10 µg/mL | MIC (Geotrichum candidum [8]): 10 µg/mL | MIC (C. stellatoidea [9]): 2.61 µg/mL | MIC (C. parapsilosis [10]): 10 µg/mL | MFC (C. krusei [11]): 10 µg/mL | MFC (C. guilliermondi [12]): 2.5 µg/mL | MIC (C. guilliermondi [13]): 2.5 µg/mL | MFC (C. parapsilosis [14]): > 10 µg/mL
